Test system: Hs578T multi-cell spheroids, viability
Assay: Anticancer human tumor Hs578T cell line growth inhibition [IpAb];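 note: drug exposure lasted 7 days before readout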
Conditions: for IC50: curve of first compound; for viability, T/C: stronger effect = lower value
Method in brief: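 Spheroids of 60% malignant cells, 25% HUVEC and 15% MSC were exposed to targeted agents combined with ipatasertib or abemaciclib. Doses started at or near clinical Cmax (10 microM when unknown) and fell in half-log steps.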

[1] = second compound 0.01 µM, first compound 0.0316 µM
[2] = second compound 0.01 µM, first compound 0.1 µM
[3] = second compound 0.01 µM, first compound 0.316 µM
[4] = second compound 0.01 µM, first compound 1 µM
[5] = second compound 0.01 µM, first compound 3.16 µM
[6] = second compound 0.01 µM, first compound 10 µM
[7] = second compound 0.0316 µM, first compound 0.0316 µM
[8] = second compound 0.0316 µM, first compound 0.1 µM
[9] = second compound 0.0316 µM, first compound 0.316 µM
[10] = second compound 0.0316 µM, first compound 1 µM
[11] = second compound 0.0316 µM, first compound 3.16 µM
[12] = second compound 0.0316 µM, first compound 10 µM
[13] = second compound 0.1 µM, first compound 0.0316 µM
[14] = second compound 0.1 µM, first compound 0.1 µM
[15] = second compound 0.1 µM, first compound 0.316 µM
[16] = second compound 0.1 µM, first compound 1 µM
[17] = second compound 0.1 µM, first compound 3.16 µM
[18] = second compound 0.1 µM, first compound 10 µM
[19] = second compound 0.316 µM, first compound 0.0316 µM
[20] = second compound 0.316 µM, first compound 0.1 µM
[21] = second compound 0.316 µM, first compound 0.316 µM
[22] = second compound 0.316 µM, first compound 1 µM
[23] = second compound 0.316 µM, first compound 3.16 µM
[24] = second compound 0.316 µM, first compound 10 µM
[25] = second compound 1 µM, first compound 0.0316 µM
[26] = second compound 1 µM, first compound 0.1 µM
[27] = second compound 1 µM, first compound 0.316 µM
[28] = second compound 1 µM, first compound 1 µM
[29] = second compound 1 µM, first compound 3.16 µM
[30] = second compound 1 µM, first compound 10 µM

Row | Compound | IC50 (second compound 0.01 µM) | IC50 (second compound 0.0316 µM) | IC50 (second compound 0.1 µM) | IC50 (second compound 0.316 µM) | IC50 (second compound 1 µM) | viability, T/C [1] | viability, T/C [2] | viability, T/C [3] | viability, T/C [4] | viability, T/C [5] | viability, T/C [6] | viability, T/C [7] | viability, T/C [8] | viability, T/C [9] | viability, T/C [13] | viability, T/C [14] | viability, T/C [19] | viability, T/C [20] | viability, T/C [25] | viability, T/C [26] | other results
1 | C=CC(=O)N1CCN(c2nc(=O)n(-c3c(C)ccnc3C(C)C)c3nc(-c4c(O)cccc4F)c(F)cc23)C(C)C1 (stereo not given) + CCN1CCN(Cc2ccc(Nc3ncc(F)c(-c4cc(F)c5nc(C)n(C(C)C)c5c4)n3)nc2)CC1 | > 10 µM | > 10 µM | > 10 µM | > 10 µM | > 10 µM | 97.5% | 103% | 101% | 96.2% | 98.8% | 74.5% | 96% | 97.2% | 100% | 92.5% | 86.3% | 93.2% | 95.5% | 104% | 107% | viability, T/C [10]: 96%; viability, T/C [11]: 92.3%; viability, T/C [12]: 76.8%; viability, T/C [15]: 94.1%; viability, T/C [16]: 102%; viability, T/C [17]: 92.5%; viability, T/C [18]: 77.2%; viability, T/C [21]: 98%; viability, T/C [22]: 101%; viability, T/C [23]: 92.8%; viability, T/C [24]: 77.9%; viability, T/C [27]: 112%; viability, T/C [28]: 118%; viability, T/C [29]: 101%; viability, T/C [30]: 88.4%
2 | Cn1ncc(Cl)c1-c1cc(C(=O)NC(CN)Cc2cccc(F)c2)sc1Cl (stereo not given) + CCN1CCN(Cc2ccc(Nc3ncc(F)c(-c4cc(F)c5nc(C)n(C(C)C)c5c4)n3)nc2)CC1 | 1.41 µM | 1.33 µM | 0.791 µM | 0.829 µM | 1.21 µM | 92.1% | 83.3% | 67.1% | 49.1% | 46.8% | 0.26% | 86% | 76.8% | 65.2% | 80.5% | 67.5% | 81.2% | 72% | 90% | 76.6% | viability, T/C [10]: 51.2%; viability, T/C [11]: 42%; viability, T/C [12]: 0.24%; viability, T/C [15]: 52.9%; viability, T/C [16]: 42.5%; viability, T/C [17]: 42.5%; viability, T/C [18]: 0.24%; viability, T/C [21]: 56.7%; viability, T/C [22]: 47.6%; viability, T/C [23]: 33.9%; viability, T/C [24]: 0.21%; viability, T/C [27]: 67.3%; viability, T/C [28]: 60.1%; viability, T/C [29]: 7.93%; viability, T/C [30]: 0.46%
3 | Cn1ncnc1[C@H]1c2n[nH]c(=O)c3cc(F)cc(c23)N[C@@H]1c1ccc(F)cc1 + CCN1CCN(Cc2ccc(Nc3ncc(F)c(-c4cc(F)c5nc(C)n(C(C)C)c5c4)n3)nc2)CC1 | > 0.1 µM | > 0.1 µM | > 0.1 µM | > 0.1 µM | > 0.1 µM | 93.4% | 88.4% | – | – | – | – | 87.3% | 84.8% | – | 85.5% | 85.7% | 84.6% | 85.3% | 102% | 94.7% | viability, T/C (second compound 0.01 µM, first compound 0.000316 µM): 101%; viability, T/C (second compound 0.01 µM, first compound 0.001 µM): 100%; viability, T/C (second compound 0.01 µM, first compound 0.00316 µM): 95.2%; viability, T/C (second compound 0.01 µM, first compound 0.01 µM): 88.1%; viability, T/C (second compound 0.0316 µM, first compound 0.000316 µM): 99.3%; viability, T/C (second compound 0.0316 µM, first compound 0.001 µM): 94.3%; viability, T/C (second compound 0.0316 µM, first compound 0.00316 µM): 91.5%; viability, T/C (second compound 0.0316 µM, first compound 0.01 µM): 93%; viability, T/C (second compound 0.1 µM, first compound 0.000316 µM): 84.9%; viability, T/C (second compound 0.1 µM, first compound 0.001 µM): 87.8%; viability, T/C (second compound 0.1 µM, first compound 0.00316 µM): 86.8%; viability, T/C (second compound 0.1 µM, first compound 0.01 µM): 81.8%; viability, T/C (second compound 0.316 µM, first compound 0.000316 µM): 89.8%; viability, T/C (second compound 0.316 µM, first compound 0.001 µM): 88.2%; viability, T/C (second compound 0.316 µM, first compound 0.00316 µM): 91.8%; viability, T/C (second compound 0.316 µM, first compound 0.01 µM): 86.7%; viability, T/C (second compound 1 µM, first compound 0.000316 µM): 106%; viability, T/C (second compound 1 µM, first compound 0.001 µM): 102%; viability, T/C (second compound 1 µM, first compound 0.00316 µM): 104%; viability, T/C (second compound 1 µM, first compound 0.01 µM): 102%
